# Assay results reported in PubChem BioAssay (NCI).
#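 Each compound was tested at five concentrations against cells in 96-well plates for 48 hours. GI50 is the concentration that inhibits growth by half. TGI: concentration producing complete growth inhibition.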
# Key:
# Assay in all cases: NCI anticancer screen, dose series, 48 h
# A498 renal = system: A498 renal
# SK-MEL-2 melanoma = system: SK-MEL-2 melanoma
# OVCAR-4 ovarian = system: OVCAR-4 ovarian
# COLO 205 colon = system: COLO 205 colon
# HT29 colon = system: HT29 colon
# OVCAR-3 ovarian = system: OVCAR-3 ovarian
# TK-10 renal = system: TK-10 renal
# LOX IMVI melanoma = system: LOX IMVI melanoma
# PC-3 prostate = system: PC-3 prostate
# UACC-257 melanoma = system: UACC-257 melanoma
# SK-MEL-5 melanoma = system: SK-MEL-5 melanoma
# OVCAR-5 ovarian = system: OVCAR-5 ovarian
# IGROV1 ovarian = system: IGROV1 ovarian
# K-562 leukemia = system: K-562 leukemia
# RXF 393 renal = system: RXF 393 renal
# HCT-116 colon = system: HCT-116 colon
# SR leukemia = system: SR leukemia
# HL-60(TB) leukemia = system: HL-60(TB) leukemia
# SNB-75 CNS = system: SNB-75 CNS
# SK-MEL-28 melanoma = system: SK-MEL-28 melanoma
# OVCAR-8 ovarian = system: OVCAR-8 ovarian
# SK-OV-3 ovarian = system: SK-OV-3 ovarian
# MDA-MB-435 = system: MDA-MB-435
# HOP-62 NSCLC = system: HOP-62 NSCLC
# HOP-92 NSCLC = system: HOP-92 NSCLC
# SNB-19 CNS = system: SNB-19 CNS
# BT-549 breast = system: BT-549 breast
# MALME-3M melanoma = system: MALME-3M melanoma
# UO-31 renal = system: UO-31 renal
# SF-268 CNS = system: SF-268 CNS
# SW-620 colon = system: SW-620 colon
# 786-0 renal = system: 786-0 renal
# UACC-62 melanoma = system: UACC-62 melanoma
# HS 578T breast = system: HS 578T breast
# ACHN renal = system: ACHN renal
# NCI-H460 lung = system: NCI-H460 lung
# SN12C renal = system: SN12C renal
# EKVX NSCLC = system: EKVX NSCLC
# SF-539 CNS = system: SF-539 CNS
# M14 melanoma = system: M14 melanoma
# SF-295 CNS = system: SF-295 CNS
# CAKI-1 renal = system: CAKI-1 renal
# DU-145 prostate = system: DU-145 prostate
# RPMI-8226 leukemia = system: RPMI-8226 leukemia
# NCI/ADR-RES ovarian = system: NCI/ADR-RES ovarian
# MDA-MB-231 breast = system: MDA-MB-231 breast
# KM12 colon = system: KM12 colon
# NCI-H226 lung = system: NCI-H226 lung
# A549 NSCLC = system: A549 NSCLC
# HCC-2998 colon = system: HCC-2998 colon
# MCF7 breast = system: MCF7 breast
# MOLT-4 leukemia = system: MOLT-4 leukemia
# NCI-H522 lung = system: NCI-H522 lung
# CCRF-CEM leukemia = system: CCRF-CEM leukemia
# HCT-15 colon = system: HCT-15 colon
# T-47D breast = system: T-47D breast
# U251 CNS = system: U251 CNS
# NCI-H23 lung = system: NCI-H23 lung
smiles,measurement,setting,value
N#Cc1c(-c2cccs2)cc(-c2cnccn2)nc1SCC(=O)N/N=C/c1ccccc1,GI50,A498 renal,4.46 µM
same,TGI,A498 renal,17.3 µM
same,GI50,SK-MEL-2 melanoma,10.3 µM
same,TGI,SK-MEL-2 melanoma,23 µM
same,GI50,OVCAR-4 ovarian,3.61 µM
same,TGI,OVCAR-4 ovarian,15.3 µM
same,GI50,COLO 205 colon,11.3 µM
same,TGI,COLO 205 colon,> 100 µM
same,GI50,HT29 colon,4.98 µM
same,TGI,HT29 colon,21.3 µM
same,GI50,OVCAR-3 ovarian,3.88 µM
same,TGI,OVCAR-3 ovarian,12.3 µM
same,GI50,TK-10 renal,4.51 µM
same,TGI,TK-10 renal,15.3 µM
same,GI50,LOX IMVI melanoma,2.8 µM
same,TGI,LOX IMVI melanoma,10 µM
same,GI50,PC-3 prostate,6.29 µM
same,TGI,PC-3 prostate,19.2 µM
same,GI50,UACC-257 melanoma,15.1 µM
same,TGI,UACC-257 melanoma,48.6 µM
same,GI50,SK-MEL-5 melanoma,3.52 µM
same,TGI,SK-MEL-5 melanoma,13 µM
same,GI50,OVCAR-5 ovarian,10.4 µM
same,TGI,OVCAR-5 ovarian,23.3 µM
same,GI50,IGROV1 ovarian,5.09 µM
same,TGI,IGROV1 ovarian,17.3 µM
same,GI50,K-562 leukemia,10.8 µM
same,TGI,K-562 leukemia,> 100 µM
same,GI50,RXF 393 renal,2.5 µM
same,TGI,RXF 393 renal,6.97 µM
same,GI50,HCT-116 colon,5.14 µM
same,TGI,HCT-116 colon,17.3 µM
same,GI50,SR leukemia,11.2 µM
same,TGI,SR leukemia,35.8 µM
same,GI50,HL-60(TB) leukemia,> 100 µM
same,TGI,HL-60(TB) leukemia,> 100 µM
same,GI50,SNB-75 CNS,3.3 µM
same,TGI,SNB-75 CNS,18.5 µM
same,GI50,SK-MEL-28 melanoma,4.06 µM
same,TGI,SK-MEL-28 melanoma,14.5 µM
same,GI50,OVCAR-8 ovarian,6.01 µM
same,TGI,OVCAR-8 ovarian,19.4 µM
same,GI50,SK-OV-3 ovarian,14.7 µM
same,TGI,SK-OV-3 ovarian,27.9 µM
same,GI50,MDA-MB-435,4.49 µM
same,TGI,MDA-MB-435,16.2 µM
same,GI50,HOP-62 NSCLC,3.2 µM
same,TGI,HOP-62 NSCLC,11 µM
same,GI50,HOP-92 NSCLC,2.26 µM
same,TGI,HOP-92 NSCLC,8.49 µM
same,GI50,SNB-19 CNS,7.21 µM
same,TGI,SNB-19 CNS,19.8 µM
same,GI50,BT-549 breast,8.31 µM
same,TGI,BT-549 breast,20.7 µM
same,GI50,MALME-3M melanoma,3.33 µM
same,TGI,MALME-3M melanoma,9.49 µM
same,GI50,UO-31 renal,6.1 µM
same,TGI,UO-31 renal,19.6 µM
same,GI50,SF-268 CNS,10.3 µM
same,TGI,SF-268 CNS,24.6 µM
same,GI50,SW-620 colon,4.97 µM
same,TGI,SW-620 colon,20.2 µM
same,GI50,786-0 renal,3.64 µM
same,TGI,786-0 renal,14.4 µM
same,GI50,UACC-62 melanoma,8.67 µM
same,TGI,UACC-62 melanoma,21 µM
same,GI50,HS 578T breast,6.77 µM
same,TGI,HS 578T breast,31.8 µM
same,GI50,ACHN renal,6.14 µM
same,TGI,ACHN renal,18.7 µM
same,GI50,NCI-H460 lung,3.93 µM
same,TGI,NCI-H460 lung,13.3 µM
same,GI50,SN12C renal,6.15 µM
same,TGI,SN12C renal,18.8 µM
same,GI50,EKVX NSCLC,6.48 µM
same,TGI,EKVX NSCLC,19.4 µM
same,GI50,SF-539 CNS,6.64 µM
same,TGI,SF-539 CNS,19.3 µM
same,GI50,M14 melanoma,4.98 µM
same,TGI,M14 melanoma,16.4 µM
same,GI50,SF-295 CNS,4.92 µM
same,TGI,SF-295 CNS,17.1 µM
same,GI50,CAKI-1 renal,3.66 µM
same,TGI,CAKI-1 renal,14.1 µM
same,GI50,DU-145 prostate,3.86 µM
same,TGI,DU-145 prostate,12.7 µM
same,GI50,RPMI-8226 leukemia,3.46 µM
same,TGI,RPMI-8226 leukemia,20.9 µM
same,GI50,NCI/ADR-RES ovarian,4.95 µM
same,TGI,NCI/ADR-RES ovarian,16.7 µM
same,GI50,MDA-MB-231 breast,4.23 µM
same,TGI,MDA-MB-231 breast,15.1 µM
same,GI50,KM12 colon,9.18 µM
same,TGI,KM12 colon,> 100 µM
same,GI50,NCI-H226 lung,3.41 µM
same,TGI,NCI-H226 lung,12.9 µM
same,GI50,A549 NSCLC,5.66 µM
same,TGI,A549 NSCLC,20.2 µM
same,GI50,HCC-2998 colon,10.7 µM
same,TGI,HCC-2998 colon,25.1 µM
same,GI50,MCF7 breast,3.52 µM
same,TGI,MCF7 breast,14.8 µM
same,GI50,MOLT-4 leukemia,47 µM
same,TGI,MOLT-4 leukemia,> 100 µM
same,GI50,NCI-H522 lung,10.3 µM
same,TGI,NCI-H522 lung,23.9 µM
same,GI50,CCRF-CEM leukemia,49.9 µM
same,TGI,CCRF-CEM leukemia,> 100 µM
same,GI50,HCT-15 colon,6.88 µM
same,TGI,HCT-15 colon,27.4 µM
same,GI50,T-47D breast,2.94 µM
same,TGI,T-47D breast,15.7 µM
same,GI50,U251 CNS,3.43 µM
same,TGI,U251 CNS,12.1 µM
CN(C)c1ccc(/C=N/Nc2nc(N/N=C/c3ccc(N(C)C)cc3)nc(N3CCCCC3)n2)cc1,GI50,A498 renal,1.58 µM
same,TGI,A498 renal,3.51 µM
same,GI50,SK-MEL-2 melanoma,1.99 µM
same,TGI,SK-MEL-2 melanoma,3.72 µM
same,GI50,OVCAR-4 ovarian,5.03 µM
same,TGI,OVCAR-4 ovarian,> 100 µM
same,GI50,HT29 colon,1.76 µM
same,TGI,HT29 colon,3.36 µM
same,GI50,OVCAR-3 ovarian,2.28 µM
same,TGI,OVCAR-3 ovarian,5.03 µM
same,GI50,TK-10 renal,2.54 µM
same,TGI,TK-10 renal,7.28 µM
same,GI50,LOX IMVI melanoma,1.61 µM
same,TGI,LOX IMVI melanoma,3.19 µM
same,GI50,PC-3 prostate,2.57 µM
same,TGI,PC-3 prostate,7.91 µM
same,GI50,UACC-257 melanoma,1.83 µM
same,TGI,UACC-257 melanoma,3.67 µM
same,GI50,SK-MEL-5 melanoma,1.73 µM
same,TGI,SK-MEL-5 melanoma,3.15 µM
same,GI50,IGROV1 ovarian,2.96 µM
same,TGI,IGROV1 ovarian,> 100 µM
same,GI50,K-562 leukemia,0.895 µM
same,TGI,K-562 leukemia,> 100 µM
same,GI50,RXF 393 renal,2.12 µM
same,TGI,RXF 393 renal,6.12 µM
same,GI50,HCT-116 colon,1.64 µM
same,TGI,HCT-116 colon,3.75 µM
same,GI50,SR leukemia,0.369 µM
same,TGI,SR leukemia,> 100 µM
same,GI50,HL-60(TB) leukemia,2.2 µM
same,TGI,HL-60(TB) leukemia,6.71 µM
same,GI50,SK-MEL-28 melanoma,2 µM
same,TGI,SK-MEL-28 melanoma,4.35 µM
same,GI50,OVCAR-8 ovarian,3.21 µM
same,TGI,OVCAR-8 ovarian,> 100 µM
same,GI50,SK-OV-3 ovarian,2.17 µM
same,TGI,SK-OV-3 ovarian,4.88 µM
same,GI50,HOP-62 NSCLC,2.19 µM
same,TGI,HOP-62 NSCLC,5.05 µM
same,GI50,HOP-92 NSCLC,1.47 µM
same,TGI,HOP-92 NSCLC,3.25 µM
same,GI50,SNB-19 CNS,3.33 µM
same,TGI,SNB-19 CNS,> 100 µM
same,GI50,BT-549 breast,15.5 µM
same,TGI,BT-549 breast,58.6 µM
same,GI50,MALME-3M melanoma,1.86 µM
same,TGI,MALME-3M melanoma,3.4 µM
same,GI50,UO-31 renal,1.72 µM
same,TGI,UO-31 renal,3.7 µM
same,GI50,NCI-H23 lung,3.49 µM
same,TGI,NCI-H23 lung,> 100 µM
same,GI50,SW-620 colon,3.17 µM
same,TGI,SW-620 colon,> 100 µM
same,GI50,786-0 renal,1.7 µM
same,TGI,786-0 renal,3.62 µM
same,GI50,UACC-62 melanoma,1.84 µM
same,TGI,UACC-62 melanoma,3.78 µM
same,GI50,HS 578T breast,2.09 µM
same,TGI,HS 578T breast,5.57 µM
same,GI50,ACHN renal,2.68 µM
same,TGI,ACHN renal,7.68 µM
same,GI50,NCI-H460 lung,3.21 µM
same,TGI,NCI-H460 lung,> 100 µM
same,GI50,EKVX NSCLC,3.13 µM
same,TGI,EKVX NSCLC,> 100 µM
same,GI50,SF-539 CNS,1.99 µM
same,TGI,SF-539 CNS,3.97 µM
same,GI50,SF-295 CNS,1.96 µM
same,TGI,SF-295 CNS,3.79 µM
same,GI50,CAKI-1 renal,2.08 µM
same,TGI,CAKI-1 renal,5.02 µM
same,GI50,DU-145 prostate,3.92 µM
same,TGI,DU-145 prostate,> 100 µM
same,GI50,RPMI-8226 leukemia,1.92 µM
same,TGI,RPMI-8226 leukemia,5.1 µM
same,GI50,NCI/ADR-RES ovarian,3.19 µM
same,TGI,NCI/ADR-RES ovarian,17 µM
same,GI50,MDA-MB-231 breast,1.8 µM
same,TGI,MDA-MB-231 breast,3.4 µM
same,GI50,KM12 colon,2.84 µM
same,TGI,KM12 colon,8.49 µM
same,GI50,NCI-H226 lung,2.19 µM
same,TGI,NCI-H226 lung,5.64 µM
same,GI50,A549 NSCLC,2.99 µM
same,TGI,A549 NSCLC,> 100 µM
same,GI50,HCC-2998 colon,2.4 µM
same,TGI,HCC-2998 colon,6.67 µM
same,GI50,MCF7 breast,2.86 µM
same,TGI,MCF7 breast,> 100 µM
same,GI50,MOLT-4 leukemia,2.87 µM
same,TGI,MOLT-4 leukemia,> 100 µM
same,GI50,NCI-H522 lung,2.06 µM
same,TGI,NCI-H522 lung,4.56 µM
same,GI50,CCRF-CEM leukemia,1.21 µM
same,TGI,CCRF-CEM leukemia,> 100 µM
same,GI50,HCT-15 colon,1.87 µM
same,TGI,HCT-15 colon,4.62 µM
same,GI50,T-47D breast,2.18 µM
same,TGI,T-47D breast,5.54 µM
same,GI50,U251 CNS,2.88 µM
same,TGI,U251 CNS,14.3 µM
